Source: patent publication US6498159B1, “Phthalazine derivatives and remedies for erectile dysfunction” (Eisai Co., Ltd., priority 1998, dated 2002)

Experiments:
PDE5 = PDE5 (Sus scrofa, UniProt A0A287B475); test: Inhibitory action on the enzyme cGMP-PDE obtained from porcine platelets; type: biochemical; conditions: 1 μM cGMP substrate, 1 mM EGTA, read-out: PDE 5 IC50
Procedure: 1) Inhibitory Action on the Enzyme cGMP-PDE Obtained from Porcine Platelets
The inhibitory activity of a test compound on the enzyme cGMP-PDE prepared from porcine platelets was determined by adding a solution of the test compound dissolved in DMSO to a reaction solution, where 1 μM cGMP was used as the substrate in the presence of 1 mM EGTA in accordance with a method of Tompson et al. The final concentration of DMSO in the reaction solution was 1% or less. Preparation of cGMP-PDE was conducted as follows. Porcine platelets were added to buffer A (20 mM Tris/HCl, 2 mM magnesium acetate, 10 mM 2-mercaptoethanol, 0.1 mM EGTA; pH 7.4), and then sonicated. The resulting suspension was centrifuged at 100,000×g for 60 min, and the resulting supernatant was subjected to a column (DEAE-Toyopearl 650S produced by Tosoh, Tokyo, Japan). After the column was washed with buffer A, the enzyme was eluted with a gradient of from 0.075 to 0.25 M NaCl in buffer A to give a CGMP-PDE fraction. The resulting fraction was dialyzed, concentrated and stored.

[1] = test system: penile cavernosum preparation removed from a rabbit; test: Augmenting action of PDE5 inhibitor on the relaxation by nitroprusside of the penile cavernosum preparation removed from a rabbit; conditions: for EC50: Oryctolagus cuniculus, compound concentration at which the contraction caused by phenylephrine is relaxed by 50%, regression analysis on relaxation curve, duplicate; for Relaxation ratio (%): after nitroprusside (300 μM), phenylephrine contraction, mean of duplicate
Procedure: 2) Augmenting Action of the PDE5 Inhibitor on the Relaxing Action of Nitroprusside on a Penile Cavernosum Preparation Removed from a Rabbit
The penis was removed from a NZW white rabbit (about 3 kg) killed by intravenous administration of pentobarbital (50 mg/kg). After removal, the cavernosum was exposed by removal of surrounding tissues such as albuginea to give a preparation (about 10×1.5×1.5 mm). This preparation was suspended on a Magnus tube filled up with 10 ml Krebs-Henseleit's nutritive solution (118.4 mM NaCl, 4.7 mM KCl, 2.5 mM CaCl2, 1.3 mM MgSO4, 1.2 mM KH2PO4, 25.0 mM NaHCO3, 11.0 mM glucose, 0.026 mM EDTA and 0.001 mM indomethacin) at 37° C., and a gas mixture (95% oxygen+5% carbon dioxide) was bubbled thereinto. Then, the isometric tension was recorded under a load of 2 g. To stabilize the contraction, contraction caused by adding a potassium chloride solution (final concentration: 100 mM) and washing were repeated twice, and further, contraction by adding phenylephrine (final concentration: 10 μM) and washing were also conducted.
It was filled up again with 10 ml Krebs-Henseleit's solution, and L-N^G-nitroarginine methyl ester (final concentration: 100 μM) was added to inhibit the formation of endogenous nitrogen monoxide. Contraction was caused by adding phenylephrine (final concentration: 10 μM), and a chemical solution was added thereto at a final concentration of 3, 30 or 300 nM. Dimethyl sulfoxide was used as the medium in this reaction. 15 min after the chemical was added, nitroprusside (final concentration: 300 μM) was added to relax the preparation. Further, papaverine (final concentration: 100 μM) was added to determine the maximum relaxation.
After the experiment, the tension generated upon adding papaverine was used as the base line, and the relaxation of the preparation by adding nitroprusside was recorded on a chart by using a DEGIMATIC CALIPER to determine the degree of relaxation.
Values in the table indicate relaxation ratio (%) after nitroprusside was added to the preparation pretreated with the 3, 30 and 300 nM compound, and the mean in a duplicate experiment was recorded. Further, the EC50 value indicates the compound concentration at which the contraction caused by phenylephrine is relaxed by 50%, and this value was calculated by regression analysis on a relaxation curve in the duplicate experiment.

[2] = preparation pretreated with 3 nM compound
[3] = preparation pretreated with 30 nM compound
[4] = preparation pretreated with 300 nM compound

SMILES | IC50 (PDE5) | EC50 [1] | Relaxation ratio (%) [1, 2] | Relaxation ratio (%) [1, 3] | Relaxation ratio (%) [1, 4]
COc1ccc(CNc2nnc(N3CCC4(CC3)CC(O)C4)c3ccc(C#N)cc23)cc1Cl.Cl [Example 9, 4-[(3-Chloro-4-methoxybenzyl)amino]-1-(2-hydroxy-7-azaspiro[3.5]non-7-yl)-6-phthalazinecarbonitrile Hydrochloride] | 0.54 nM | 2 nM | 56.6% | 77.7% | 79.6%
COc1ccc(CNc2nnc(N3CCC(C(F)CO)CC3)c3ccc(C#N)cc23)cc1Cl.Cl (stereo not drawn) [Example 36, 4-[(3-Chloro-4-methoxybenzyl)amino]-1-(4-[1-fluoro-2-hydroxyethyl)piperidino]-6-phthalazinecarbonitrile Hydrochloride] | 0.25 nM | 3.5 nM | 35.0% | 60.8% | 54.8%
COc1ccc(CNc2nnc(N3CCC(OCCO)CC3)c3ccc(C#N)cc23)cc1Cl.Cl [Example 37, 4-[(3-Chloro-4-methoxybenzyl)amino]-1-[4-(2-hydroxyethoxy)piperidino]-6-phthalazinecarbonitrile Hydrochloride] | – | 29.3 nM | 33.4% | 50.1% | 56.0%
COc1ccc(CNc2nnc(N3CCC(O)CC3)c3ccc(C#N)cc23)cc1Br.Cl [Example 77, 4-[(3-Bromo-4-methoxybenzyl)amino]-1-(4-hydroxypiperidino)-6-phthalazinecarbonitrile Hydrochloride] | 0.23 nM | 0.7 nM | 58.8% | 71.7% | 80.6%
COc1ccc(CNc2nnc(N3CCC(F)(CO)CC3)c3ccc(C#N)cc23)cc1Br.Cl [Example 83, 4-[(3-Bromo-4-methoxybenzyl)amino]-1-[4-fluoro-4-(hydroxymethyl)piperidino]-6-phthalazinecarbonitrile Hydrochloride] | 0.5 nM | 2.8 nM | 50.6% | 67.3% | 69.9%
COc1ccc(CNc2nnc(N3CCC(O)CC3)c3ccc(C#N)cc23)cc1C.Cl [Example 86, 1-(4-Hydroxypiperidino)-4-[(4-methoxy-3-methylbenzyl)amino]-6-phthalazinecarbonitrile Hydrochloride] | – | 3 nM | 50.2% | 70.2% | 71.5%
COc1ccc(CNc2nnc(N3CCC(F)(CO)CC3)c3ccc(C#N)cc23)cc1C.Cl [Example 88, 1-[4-Fluoro-4-(hydroxymethyl)piperidino]-4-[(4-methoxy-3-methylbenzyl)amino]-6-phthalazinecarbonitrile Hydrochloride] | 0.89 nM | 3 nM | 50.0% | 67.5% | 75.0%
